Here are results for 45 compounds from ChEMBL document CHEMBL1201862, “PubChem BioAssay data set” (2004).

SMILES strings stand for the structures.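 Cells were grown in 96-well plates and exposed to each compound for 48 hours at five concentrations; endpoints were interpolated linearly between bracketing concentrations, or set to the highest concentration if not reached. GI50 marks 50% less growth.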 Calls of active or inactive are those of the source. Rule as the data show it: active = GI50 up to about 1.1 µM and inactive = higher.

Common to all, as to test: NCI anticancer screen, dose series, 48 h
Test [1] concerns DMS-273.
Test [2] has as its system SNB-78.
Test [3] deals with DLD-1.
Test [4] relates to M19-MEL.
Test [5] deals with 786-0.
For test [6], the system named is MDA-N.
Test [7] relates to BT-549.
In test [8] the test system is RXF 631.
The subject of test [9] is LXFL 529.

`COc1ccc2cc1Oc1ccc(cc1)C[C@H]1c3cc(c(OC)cc3CCN1C)Oc1c(O)c(OC)cc3c1[C@H](C2)N(C)CC3` [FANGCHINOLINE]: the GI50 in [1] was 14.7 µM (inactive); in [2], 40.7 µM (inactive); in test [3] it was 23.4 µM (inactive); in [4], 22.6 µM (inactive).

Consider `CCCCCc1cccc(=O)o1`, for which the GI50 in test [5], in [6] and in [7] was > 100 µM (inactive) in each case.

Turning to `Nc1nnc(N)n1NC(=O)C(=O)Nc1ccc([N+](=O)[O-])cc1`, the GI50 in test [1], in test [2], in [3], in [8] and in test [4] was > 100 µM (inactive) each time.

Turning to `COC(CN(C(C)=O)C1CCC2(SCCS2)c2[nH]c3ccccc3c21)OC` (centres undefined), the GI50 in test [5], in test [6] and in test [7] was > 100 µM (inactive) in each case.

Take `N/C(=N\O)N/N=C\c1cc([N+](=O)[O-])cc([N+](=O)[O-])c1O`: the GI50 in [1] was 2.72 µM (inactive); in [2], > 100 µM (inactive); in test [3], > 37.2 µM (inactive); in test [4], 40.6 µM (inactive).

With `Cc1ccc2c(O)cc(-c3cc(C)sc3C)nc2n1`, the GI50 in [5] is 3.93 µM (inactive); in test [6], 0.455 µM (active); in [7] it was 8.87 µM (inactive).

`CCCCCCCCCCCC1=C(O)C(=O)C=C(O)C1=O` [EMBELIN]: the GI50 is 4.72 µM (inactive) in [1], 9.66 µM (inactive) in test [2] and 8.49 µM (inactive) in [3].

With `COc1cc(CCCl)c(CC2=NCCc3cc(OC)c(OC)cc32)cc1OC`, the values for the GI50 in test [6] and in [7] were 70.1 µM (inactive) and > 100 µM (inactive), respectively.

In the case of `CC1C[C@]2(C[C@@H](C)C(=O)O2)OC2CC3(C)C4CCC5C(C)(C)OC(=O)CC[C@@]56C[C@@]46CC[C@]3(C)C12` (some centres undefined), the GI50 in test [1], in test [2], in [9], in [3] and in test [8] was > 100 µM (inactive) in each case.

Turning to `CSc1nc2c(ncn2C2OCC(O)C(O)C2O)c(=O)n1C` (centres undefined), the GI50 in test [1], in [2], in test [3] and in test [4] was > 100 µM (inactive) throughout.

As for `Cc1c(OCc2ccccc2)c(=O)ccn1CCc1c[nH]c2ccccc12`, the GI50 in [5] was 33.9 µM (inactive); in [6], 28.7 µM (inactive); in [7], 44.6 µM (inactive).

With `CN(CCCCCl)P(=O)(OCC1=CC(=O)c2ccccc2C1=O)OC[C@H]1O[C@@H](n2cc(F)c(=O)[nH]c2=O)C[C@@H]1O` (some centres undefined), the GI50 is 0.753 µM (active) in [6] and 9.06 µM (inactive) in test [7].

As to `COP(=O)(OC)[C@H](O)[C@H]1C[C@@H]1c1ccccc1`, the GI50 in test [7] was > 100 µM (inactive).

In the case of `O=C(N/N=C/C=C/c1ccc([N+](=O)[O-])o1)c1ccc(Br)s1`, the GI50 is 19.1 µM (inactive) in [5], 20.6 µM (inactive) in test [6] and 25.3 µM (inactive) in test [7].

Regarding `Nc1nn(CC(O)CO)c(=O)s1` (centres undefined), the GI50 in test [1], in test [9], in test [3], in test [8] and in [4] was > 100 µM (inactive) each time.

`O=C1Cc2c(-c3ccccc3)cc(-c3cccc(Cl)c3)nc2-c2ccccc2N1`: the values for the GI50 in test [6] and in test [7] were 6.82 µM (inactive) and 6.61 µM (inactive), respectively.

Consider `CCOC(=O)c1ccc(N[C@@H]2c3cc4c(cc3C(c3cc(OC)c(O)c(OC)c3)[C@H]3C(=O)OCC32)OCO4)cc1` (some centres undefined), for which the GI50 was 4.1 µM (inactive) in test [2]; 4.55 µM (inactive) in test [9]; 1.44 µM (inactive) in test [3]; 1.64 µM (inactive) in [7]; 1.75 µM (inactive) in [4].

Take `O=P1(N2CCOCC2)OCCO1`: the GI50 in test [5] and in test [6] was > 100 µM (inactive) each time.

As to `COC(=O)c1ccc(NCC2=C(Br)C(=O)C=CC2=O)cc1Cl`, the GI50 in test [5] was 13.3 µM (inactive); in [6], 16.9 µM (inactive); in test [7], 13.1 µM (inactive).

As to `COc1cc(C2c3cc4c(cc3[C@@H](Nc3ccc(N5CCOCC5)cc3)C3COC(=O)[C@H]23)OCO4)cc(OC)c1O` (some centres undefined), the GI50 in test [1] is 0.238 µM (active); in test [3], 1.55 µM (inactive); in [4], 1.71 µM (inactive).

With `ClCc1nnc2n1-c1ccc(Cl)cc1SC2`, the figures for the GI50 in [1], in [2] and in test [4] were 2.92 µM (inactive), 5.4 µM (inactive) and 3.23 µM (inactive), respectively.

With `O=C1c2ccccc2-c2nnc(-c3ccc([N+](=O)[O-])cc3)cc21`, the GI50 in test [5], in test [6] and in test [7] was > 10 µM (inactive) throughout.

In the case of `CCOC(=O)C[C@@H]1C2(C=C[C@@]13CO3)OCC(C)(C)CO2`, the GI50 in test [6] and in test [7] was > 100 µM (inactive) in each case.

In the case of `NC(=O)C1(c2ccccc2)Nc2ccccc2S1` (centres undefined), the GI50 in test [1], in [9], in [3] and in test [4] was > 100 µM (inactive) each time.

`[N-]=[N+]=Nc1c(C=O)c(=O)n2c3c(cccc13)CCC2`: the results for the GI50 in test [5], in test [6] and in test [7] were 3.93 µM (inactive), 5.81 µM (inactive) and 2.65 µM (inactive), respectively.

On to `C=C/C(C)=C/[C@H](C)C(=O)C[C@H](O)CC1CC(=O)NC(=O)C1`, for which the GI50 in test [1] was 34.9 µM (inactive); in test [2] it was 27.4 µM (inactive); in test [3] it was 44.2 µM (inactive); in test [4], 80.4 µM (inactive).

For `C#CC[C@@]12CC(=O)C[C@@H]1CCC1(C2)OCCO1.C#CC[C@]12CC(=O)CC[C@H]1CC(=O)C2`, the GI50 in [1], in test [2], in [3] and in [4] was > 100 µM (inactive) in each case.

As to `Cc1c(N=NN(C)C)cc[n+]([O-])c1C`, the GI50 in [1], in test [2], in [3] and in test [4] was > 100 µM (inactive) throughout.

For the compound `O=C1Oc2ccc([N+](=O)[O-])cc2N/C1=C\C(=O)c1ccccc1`, the GI50 was 52.6 µM (inactive) in test [5], > 100 µM (inactive) in test [6] and > 100 µM (inactive) in test [7].

As to `CCCCOP1(=O)C=CC(Cl)=C(C)C1` (centres undefined), the GI50 was 22.3 µM (inactive) in test [5], 27.9 µM (inactive) in test [9], 29.1 µM (inactive) in [8] and 29.7 µM (inactive) in test [4].

`COc1cc(C2c3cc4c(cc3[C@@H](Nc3cccc(C(C)=O)c3)C3COC(=O)[C@H]23)OCO4)cc(OC)c1O` (some centres undefined): the GI50 in [1] was 0.0497 µM (active); in test [2] it was 2.75 µM (inactive); in test [3] it was 1.37 µM (inactive); in test [4], 0.897 µM (active).

Take `O=C1C(Cl)=C(N2CCC[C@H]2CO)C(=O)c2c(O)ccc(O)c21`: the GI50 in test [5] is 2.03 µM (inactive); in [6] it was 1.86 µM (inactive); in test [7], > 10 µM (inactive).

For the compound `CCCNC(/C=C/[Si](C)(C)C)CO.CCCNCC(O)/C=C/[Si](C)(C)C` (centres undefined), the GI50 in test [2], in test [9], in test [3], in [8] and in [4] was > 100 µM (inactive) throughout.

As for `O=C1C2Cc3ccccc3CN2C(=O)N1CN1CCCCC1` (centres undefined), the GI50 is 50.8 µM (inactive) in [1]; > 100 µM (inactive) in test [5]; > 100 µM (inactive) in [9]; > 100 µM (inactive) in [3]; > 100 µM (inactive) in test [4].

On to `COC(=O)C1(c2ccc(N(C)C)cc2OC)CCCN(C(=O)Oc2ccccc2[N+](=O)[O-])CCc2c1[nH]c1ccccc21` (centres undefined), for which the GI50 in test [6] and in test [7] was > 100 µM (inactive) each time.

Consider `CN(C(=O)c1ccc(OCCCC(=O)O)c(Cl)c1Cl)C1CCCC1`, for which the GI50 in [1], in test [2], in [3] and in test [4] was > 100 µM (inactive) throughout.

On to `CCSc1nc(N)c2c(-c3ccc(OC)c(OC)c3)c3c(nc2n1)CCCC3`, for which the GI50 in test [6] and in test [7] was > 100 µM (inactive) in each case.

Turning to `CCP(=O)(CC)C(Cl)Cl`, the GI50 in [6] is > 100 µM (inactive).

As for `COC(=O)C1=C(O)C(C(=O)OC)[C@]2(O)[C@@H](C(=O)OC)[C@H]1C[C@@H](c1ccccc1)[C@@H]2C(=O)OC` (some centres undefined), the GI50 was 5.01 µM (inactive) in test [6] and 15.8 µM (inactive) in test [7].

Take `COc1ccc(Sc2ccccc2N)cc1`: the GI50 in test [1] is 30.6 µM (inactive); in [2], 37.8 µM (inactive); in [9], 41 µM (inactive); in test [3], 43.5 µM (inactive); in [4], 36.7 µM (inactive).

As to `CCCCOP(C)(=O)C(NC(=O)OCC)(C(F)(F)F)C(F)(F)F` (centres undefined), the GI50 in [6] and in test [7] was > 100 µM (inactive) each time.

Turning to `COP(=O)(OC)C(Cc1cn(C(C)=O)c2ccccc12)C(=O)O` (centres undefined), the GI50 in test [6] was > 100 µM (inactive).

With `COc1ccc(C2C(C(=O)O)=C(COC(C)=O)Oc3cc4c(cc32)OCO4)cc1` (centres undefined), the GI50 in test [1], in test [2], in [3], in test [8] and in test [4] was > 100 µM (inactive) throughout.

In the case of `C/C([O-])=C(/c1nc(-c2ccc([N+](=O)[O-])o2)no1)[n+]1cc(C)ccc1C`, the GI50 in test [1] was 11.7 µM (inactive); in test [2], 20.7 µM (inactive); in test [3], 11.5 µM (inactive); in [4], 5.19 µM (inactive).

Turning to `COC(=O)C1=COC2OC3/C(=C\c4ccc(O)c(OC)c4)C(=O)OC34C=CC1C24` (centres undefined), the GI50 in test [1] is 16.3 µM (inactive); in test [2], 15.2 µM (inactive); in test [9], 13.5 µM (inactive); in test [3], 18.5 µM (inactive); in test [4] it was 14.2 µM (inactive).
